According to patent US11191762B2, “Alkyl substituted triazole compounds as agonists of the APJ Receptor” (priority 2016, dated 2021):
pEC50: −log10 of the molar value.

test system: heart failure rats; experiment: Cardiac function with ACE inhibitor captopril and APJ agonist in heart failure rats in vivo; parameters: species or system rat; conditions: captopril alone, acute settings
Excerpt: The interaction between […] (ACE2) and Apelin biology is complicated. To investigate the interaction between the Apelin-APJ and ACE signalling pathways, we examined the improvement in cardiac function with APJ small molecule agonists in the presence of ACE inhibitor captopril in heart failure rats in vivo. […] However, in the presence of an APJ agonist, there was a shift in potency to the left with marked improvement in contractility and ejection fraction without changes in heart rate. These findings provide a new reference for the understanding of the regulation of ACE2 for the renin angiotensin aldosterone system (RAAS), independent of AT1R signaling and offer new potential drug targets for the treatment of diseases such as hypertension and heart failure. This work clearly establishes that combination of an agonist of the APJ receptor with an ARB such as losartan and/or with an ACE inhibitor such as captopril which may play an important role in providing greater efficacy in treating heart failure patients, for example in improving contractility and ejection fraction without changing the heart rate.

In the case of C[C@H](CS)C(=O)N1CCC[C@H]1C(=O)O [Captopril, captopril], the “contractility or ejection fraction” value was “does not show a marked improvement in contractility or ejection fraction”.

biological target: human APJ-AT1R (angiotensin Type 1) double stable CHO cell line (Homo sapiens (Human), UniProt P35414); experiment: IP1 accumulation (TR-FRET), AngII cooperativity, APJ-AT1R double stable cells; type: cell-based; conditions: APJ small molecule agonists in the presence of AngII
Sequence (P35414 whole entry): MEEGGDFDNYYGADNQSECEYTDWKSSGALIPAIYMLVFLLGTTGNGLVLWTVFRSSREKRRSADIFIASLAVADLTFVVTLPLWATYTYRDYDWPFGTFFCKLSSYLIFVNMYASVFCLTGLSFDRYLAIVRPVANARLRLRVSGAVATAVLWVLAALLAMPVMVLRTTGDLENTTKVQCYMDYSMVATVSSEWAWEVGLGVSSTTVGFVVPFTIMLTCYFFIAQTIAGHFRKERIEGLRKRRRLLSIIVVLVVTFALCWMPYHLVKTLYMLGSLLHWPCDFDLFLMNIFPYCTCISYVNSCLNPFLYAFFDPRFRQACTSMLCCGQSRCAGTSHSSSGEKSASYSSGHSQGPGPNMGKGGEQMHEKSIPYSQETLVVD
Experimental: Single and double stable recombinant cell lines were generated for human APJ and the AT1R receptor in CHO K1 cells tagged either with FLAG or hemagglutinin (HA) tag. Briefly, the CHO-K1 APJ/AT1R cells were seeded in culture medium of DMEM-F12 and 10% FBS at a density of 15 k/well in a 96 well plate overnight. The next day, the culture medium was replaced with medium containing no serum for 4 h. The compound AngII at a range of concentrations (1 pM-10 μM) with or without different concentrations of APJ agonists were diluted in stimulation buffer and added to the cell plate. The plate was sealed and incubated for 1 h. This was followed by addition of IP-d2 conjugate followed by europium cryptate antibody conjugate into the wells. The plate was sealed, followed with incubation for 2 h at RT. Time-resolved fluorescence resonance energy (TR-FRET) at 620 nm and 665 nm was measured after 2 h with an Envision reader. The signal ratios and delta F were calculated and the amount of IP1 produced was inversely proportional to the TR-FRET ratio, 665/620 nm.

For CCCCc1nc(Cl)c(CO)n1Cc1ccc(-c2ccccc2-c2nn[nH]n2)cc1 [losartan], the “effect of losartan on APJ agonist induced cooperativity” value was “relieved this cooperativity”.

biological target: human APJ receptor (Homo sapiens (Human), UniProt P35414); experiment: biochemical; type: biochemical; conditions: not given
Procedure, shortened: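 [35S]GTPγS binding to membranes from CHO cells stably expressing human APJ, captured on WGA PS beads (5 μg/well). Buffer: 20 mM HEPES pH 7.5, 5 mM MgCl2, 100 mM NaCl, 0.1% BSA, with 3 μM GDP and 0.1 nM [35S]GTPγS final; compounds tested as 22-point 2-fold dilutions.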

human APJ receptor, sequence (P35414 whole entry): as above

Compound [2H]C([2H])([2H])OCc1nnc(NS(=O)(=O)[C@@H](C)[C@@H](OC(C)C)c2ncc(C)cn2)n1-c1c(OC)cccc1OC [Example 152.0] has a pEC50 of 8.21.

same assay, conditions: [35S]GTPγS binding, membranes from CHO cells stably expressing human APJ receptor; read-out: Activity hAPJ SPA EC50 IP

Going from CCC(CC)n1c(COC)nnc1NS(=O)(=O)[C@@H](C)[C@H](OC)c1ncc(Cl)cn1 [Example 147.0] to COCc1nnc(NS(=O)(=O)[C@@H](C)[C@@H](OC(C)C)c2ccc(C)cn2)n1-c1c(OC)cccc1OC [Example 155.0], the pEC50 rises from 6.77 to 7.92 (1.15 log units). The second is the more potent here.

Compared with COCCn1c(COC)nnc1NS(=O)(=O)[C@@H](C)[C@H](OC)c1ncc(Cl)cn1 [Example 156.0], COCc1nnc(NS(=O)(=O)[C@@H](C)[C@H](OC)c2ncc(Cl)cn2)n1-c1c(Cl)cccc1Cl [Example 157.0] is lower in pEC50: 6.28 for the first, less than 4.90 for the second. The first is the more potent here.

COc1ccc(Cl)c(-n2c(COC(F)F)nnc2NS(=O)(=O)[C@@H](C)[C@H](OC)c2ncc(Cl)cn2)c1 [Example 160.0] and COCc1nnc(NS(=O)(=O)[C@@H](C)[C@H](C)c2ncc(Cl)cn2)n1-c1cc(OC)ccc1Cl [Example 162.0] are within 0.2 log units of each other in pEC50: 7.68 for the first, 7.62 for the second.

First: COCc1nnc(NS(=O)(=O)[C@@H](C)[C@@H](OC(C)C)c2ncc(C)cn2)n1-c1cc(OC)ccc1Cl [Example 163.0]
Second: CCCCc1nnc(NS(=O)(=O)[C@@H](C)[C@H](C)c2ncc(Cl)cn2)n1-c1c(OC)cccc1OC [Example 164.0]
The pEC50 of the first is 1.68 log units lower: 7.40 for the first, 9.08 for the second.

CCCCc1nnc(NS(=O)(=O)[C@@H](C)[C@H](OC)c2ncc(C)cn2)n1-c1c(OC)cccc1OC [Example 175.0] and CCCCc1nnc(NS(=O)(=O)[C@@H](C)[C@H](C)c2ncc(C)cn2)n1-c1c(OC)cccc1OC [Example 176.0] are within 0.2 log units of each other in pEC50: 8.77 for the first, 8.72 for the second.

Compared with “(1R,2S)-1-(5-chloro-2-pyrimidinyl)-N-(5-((1R)-1-cyclopropylethyl)-4-(4,6-dimethoxy-5-pyrimidinyl)-4H-1,2,4-triazol-3-yl)-1-methoxy-2-propanesulfonamide and (1R,2S)-1-(5-chloro-2-pyrimidinyl)-N-(5-((1S)-1-cyclopropylethyl)-4-(4,6-dimethoxy-5-pyrimidinyl)-4H-1,2,4-triazol-3-yl)-1-methoxy-2-propanesulfonamide [Example 167.0]”, “(1R,2S)-1-(5-chloropyrimidin-2-yl)-1-methoxy-N-(4-(1-methylaclopropyl)-5-(((R)-tetrahydrofurcan-2-yl)methyl)-4H-l,2,4-triazol-3-yl)propane-2-sulfonainide or (1R,2S)-1-(5-chloroprimidin-2-yl)-1-methoxy-N-(4-(1-methylcyclopropyl)-5-(((S)-tetrahydrofuran-2-yl)methyl)-4H-l,2.4-triazol-3-yl)propane-2-sulfonamide [Example 56.0]” is 0.58 log units lower in pEC50: 6.96 for the first, 6.38 for the second.

Compared with “(1R.2S)-1-(5-chloropyrimidin-2-yl)-1-methoxy-N-(4-(1-methylcyclopropyl)-5-(((R)-tetrahydrofuran-2-yl)methyl)-4H-1,2,4-triazol-3-yl)propane-2-sulfonamide or (1R,2S)-1-(5-chloropyrimidin-2-yl)-1-methoxy-N-(4-(1-methylcyclopropyl)-5-(((S)-tetrahydrofuran-2-yl)methyl)-4H-1,2,4-triazol-3-yl)propane-2-sulfonamide [Example 57.0]”, “(S)-N-(4-(2,6-dimethoxyphenyl)-5-(methoxymethyl)-4H-1,2,4-triazol-3-yl)-1-(5-fluoropyrimidin-2-yl)piperidine-3-sulfonamide or (R)-N-(4-(2,6-dimethoxyphenyl)-5-(methoxymethyl)-4H-1,2,4-triazol-3-yl)-1-(5-fluoropyrimidin-2-yl)piperidine-3-sulfonamide [Example 77.0]” is 0.63 log units lower in pEC50: 7.38 for the first, 6.75 for the second. The first is the more potent here.

“(S)-N-(4-(2,6-dimethoxyphenyl)-5-(methoxymethyl)-4H-1,2,4-triazol-3-yl)-l-(5-fluoropyrimidin-2-yl)piperidine-3-sulfonamide or (R)-N-(4-(2,6-dimethoxyphenyl)-5-(methoxymethyl)-4H-1,2,4-triazol-3-yl)-l-(5-fluoropyrimidin-2-yl)piperidine-3-sulfonamide [Example 78.0]” showed a pEC50 of 6.21.

same assay, conditions: read-out: Activity hAPJ SPA EC50 IP

First: COCCOCc1nnc(NS(=O)(=O)[C@@H](C)[C@H](C)c2ncc(Cl)cn2)n1-c1c(OC)cccc1OC [Example 151.0]
Second: COc1cccc(OC)c1-n1c(COC(C)C)nnc1NS(=O)(=O)[C@@H](C)[C@H](C)c1ncc(Cl)cn1 [Example 161.0]
The pEC50 of the first is 1.04 log units lower: 7.62 for the first, 8.66 for the second. The second is the more potent here.

First: COCc1nnc(NS(=O)(=O)[C@@H](C)[C@@H](OC(C)C)c2ncc(F)cn2)n1-c1c(OC)cccc1OC [Example 154.0]
Second: CCCCc1nnc(NS(=O)(=O)[C@@H](C)[C@H](OC)c2ncc(Cl)cn2)n1-c1c(OC)cccc1OC [Example 174.0]
The pEC50 of the first is 1.34 log units lower: 8.18 for the first, 9.52 for the second.
